One molecule from patent US20230340127A1, “METHODS AND COMPOSITIONS FOR CANCER TREATMENT BY INHIBITION OF FBXO44” (Sanford Burnham Prebys Medical Discovery Institute, priority 2022, published 2023) can be followed below.

Assay [1] deals with MDA-MB-231-luc-derived mammary tumors. The assay can be described thus: MDA-MB-231-luc orthotopic mammary tumors in immunodeficient mice treated with F5446. It is filed as in vivo, mouse. Here is the method: Animal studies: mice were maintained under pathogen free conditions in 14 hrs light/10 hrs dark cycle with ad libitum access to food and water. All animal handling and procedures used were performed in accordance with protocols approved by the Institutional Animal Care and Use Committee of SBP or UCSD. For intracardiac injections, 10^5 MDA-MB-231-luc cells transduced with lentivirus expressing non-targeting or FBXO44 shRNAs were resuspended in 100 μL DPBS and injected into the left ventricle of 6-week old female athymic nude mice (Envigo no. 069) anesthetized with isoflurane. Metastatic seeding was monitored weekly by intraperitoneal (i.p.) injection of 100 μL of 30 mg/mL D-Luciferin (Xenogen no.)CR-1001) 10 min prior to imaging using the IVIS Spectrum Xenogen Imaging System (Caliper Life Sciences). Images were analyzed using Living Image 3.0 software (Caliper Life Sciences). For ex vivo imaging of tissues, mice were injected with D-Luciferin prior to euthanasia, tissues harvested and placed in 24-well tissue culture plates containing 1 mL of 0.3 mg/mL D-Luciferin and imaged. Organs/tissues were fixed in 10% formalin and subjected to hematoxylin and eosin staining. For orthotopic injections of NSG mice, 3×10^6 MDA-MB-231-luc cells were suspended in 100 μL of PBS and injected into the mammary fat pads of 4- to 6-week-old female mice. For F5446 drug treatments, mice were randomly divided into 3 groups at day 12. The mice were administered vehicle (10% Cremophor EL in PBS) or F5446 at doses of 10 and 20 mg/kg body weight via i.p. injection on days 12, 14, 17, 19, 21 and 24 post-inoculation of cells. Tumor size was measured every 4-5 days (long diameter and short diameter) with a caliper and tumor volume calculated as 0.5×length×width×width. Mice were imaged weekly to monitor tumor growth and metastasis in vivo using an IVIS Spectrum Xenogen Imaging System (Caliper Life Sciences). All mice were euthanized at day 25 except 3 mice were taken out from each group for tumor IHC staining of γH2AX and cleaved Caspase 3 and quantitative RT-PCR analysis at day 21. […]

In assay [2] the test system is 4T1 tumors. The assay can be described thus: 4T1 mammary tumors in syngeneic immunocompetent mice, F5446 plus anti-PD-1 antibody. It is filed as in vivo, mouse. Here is the method: 4T1 tumor experiment: 10^5 4T1 cells were inoculated into the mammary fat pads of 6- to 8-week-old female BALB/c mice (The Jackson Laboratory). Tumor size was measured twice weekly. After 22 days, mice were euthanized and portions of each tumor processed for flow cytometry and histological analysis. For antibody treatments, mice were administered 200 μg rat IgG2a isotype control (BioXCell no. BP0089) or anti-PD-1 (BioXCell no. BP0273) antibody via i.p. injection on days 15, 17, 19, 21 and 23 post-inoculation of 4T1 cells. For combination treatments, mice were administered vehicle (10% Cremophor EL in PBS) or F5446 at 10 mg/kg body weight via i.p. injection on days 12, 14, 16, 18, 20, and 22 post-inoculation of cells and administered 200 μg rat IgG2a isotype (control) or anti-PD-1 antibody via i.p. injection on days 15, 17, 19, 21, and 23 post-inoculation of 4T1 cells. Mouse survival was monitored with tumor volume exceeding 2000 mm^3, weight loss>20%, and decreasing behavioral conditions considered as endpoints.
To investigate the effects of pharmacologically targeting SUV39H1, F5446, on tumor growth and immunotherapy response, experiments using mouse model were performed as described in previous examples. Mice were also treated with F5446. Growth curve, survival curve, IHC, and qRT-PCR experiments were performed as described in previous examples.

In assay [3] the test system is cancer cell lines and patient-derived glioblastoma cultures. Briefly: Viability of cancer cells after F5446 treatment. To be noted: F5446 for 48 hrs (FIG. 9G). It is filed as cell-based, human. The protocol: Cell lines and culture conditions: all cancer cell lines were purchased from the American Tissue Culture Collection (ATCC) and grown in recommended culture media. Specifically, MDA-MB-231, BT-549, MCF7, A549, and H446 cells were cultured in RPMI 1640 (Corning), HEK293T, HEK293FT, and HeLa cells were cultured in DMEM (Corning), MDA-MB-231-luc cells were cultured in MEM (Corning), U2OS and HCT116 cells were cultured in McCoy's 5A (Corning). The above media were supplemented with 10% fetal bovine serum (FBS), 2 mM glutamine, and 100 U/mL penicillin and streptomycin. Patient-derived glioma stem cells (GSCs) were obtained (Xie et al., 2018) and cultured in Neurobasal medium (Thermo Fisher Scientific, #11360070) supplemented with B27 without vitamin A (Thermo Fisher Scientific, #A3353501), EGF, and bFGF (20 ng/mL each; R&D Systems), sodium pyruvate (Thermo Fisher Scientific, #11360070), and GlutaMAX (Thermo Fisher Scientific, #35050061). All cells were incubated at 37° C. in 5% CO2. The cell cultures were authenticated by short tandem repeat (STR) analysis.
To assess whether this epigenetic regulatory pathway could potentially be targeted for cancer treatment, SUV39H1 and its chemical inhibitor F5446 were used to perform experiments. IF, qRT-PCR, and growth curve experiments were performed as described in previous examples. […]

For `COC(=O)c1cc2c(n1S(=O)(=O)c1ccc(Cl)cc1)C(=O)C(=O)c1[nH]cc(C(=O)OCc3ccccc3)c1-2` [F5446], the “γH2AX and cleaved Caspase 3 in tumors” value in assay [1] (IHC of F5446-treated tumors (FIG. 12K)) is on record as “dose-dependent increase”. Moreover, the mammary tumor growth entry in assay [1] (immunocompromised mice, 10 and 20 mg/kg i.p. (FIGS. 12H-12J)) is “inhibited mammary tumor growth in immunocompromised mice in a dose-dependent manner”. Moreover, the “expression of REs, IFN α/β, and ISGs in tumors” value in assay [1] (qRT-PCR of F5446-treated tumors (FIG. 12L)) is “upregulated”. Besides, in assay [2] (F5446 10 mg/kg i.p. combined with 200 μg anti-PD-1 antibody i.p. (FIGS. 12M-12O)), the “sensitivity of 4T1 tumors to anti-PD-1 therapy” value is given as “enhanced”. Also, the mouse survival result in assay [2] (F5446 combined with anti-PD-1 therapy, 4T1 tumors (FIG. 12O)) is “increased”. For the same molecule, the “survival of cancer cell lines and patient-derived glioblastoma cultures” value in assay [3] was “reduced”.
